Where “and” joins values, the source holds several entries; their conditions need not be identical. Equal values may be shown once.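 48-hour exposure; five concentrations; linearly interpolated endpoints. Here, GI50 denotes the concentration required for 50% inhibition of growth. TGI: concentration producing complete growth inhibition.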
Experiments:
Experiment in all cases: NCI tumour cell line growth inhibition, 48 h
[1] = test system: SF-539 CNS
[2] = test system: T-47D breast
[3] = test system: A498 renal
[4] = test system: UO-31 renal
[5] = test system: RPMI-8226 leukemia
[6] = test system: OVCAR-5 ovarian
[7] = test system: PC-3 prostate
[8] = test system: EKVX NSCLC
[9] = test system: TK-10 renal
[10] = test system: MOLT-4 leukemia

Structure (SMILES) | GI50 [1] | TGI [1] | GI50 [2] | TGI [2] | GI50 [3] | TGI [3] | GI50 [4] | TGI [4] | GI50 [5] | TGI [5] | GI50 [6] | TGI [6] | GI50 [7] | TGI [7] | GI50 [8] | TGI [8] | GI50 [9] | TGI [9] | GI50 [10] | TGI [10]
O=C1OC(O)[C@@H]2[C@H]1[C@H]1CC[C@@H]2O1 (some centres undefined) | > 100 µM | > 100 µM | 15.2 µM | 42.6 µM | 7.07 µM | 51.9 µM | 66.6 µM | > 100 µM | 49.2 µM | > 100 µM | 57.3 µM | > 100 µM | > 100 µM | > 100 µM | > 100 µM | > 100 µM | 27.3 µM | 66.2 µM | > 100 µM | > 100 µM
COc1ccc(/C=C(/C#N)n2nnc3cccc(F)c32)cc1 | 1.62 µM | 4.06 µM | 0.503 µM | > 100 µM | 1.22 µM | 4.1 µM | 1.8 µM | 6.87 µM | 2.18 µM | > 100 µM | 1.82 µM | 4.56 µM | 1.63 µM | > 100 µM | 2.37 µM | > 100 µM | 3.18 µM | 47.2 µM | 0.68 µM | > 100 µM
CN1CCN(CCCn2c(=O)c3sc4ncccc4c3n3nnc(-c4ccccc4)c23)CC1 | 5.72 µM | 13.4 µM | 7.99 µM | 15.8 µM | 0.159 µM | 9.37 µM | 5.1 µM | 12 µM | 6.1 µM | 15.8 µM | 8.85 µM | 16.9 µM | 6.27 µM | 13.4 µM | 6.47 µM | 13.3 µM | 6.92 µM | 13.6 µM | 1.55 µM | 4.95 µM
CCCCCCCC(=O)SCC/C=C/[C@@H]1CC(=O)NCc2cc(ccn2)C2=N[C@@](C)(CS2)C(=O)N[C@@H](C(C)C)C(=O)O1 | 0.0203 µM | > 33.3 µM | 0.0838 µM | 0.616 µM | 0.00591 µM | 0.0418 µM | 0.0264 µM | 0.426 µM | 0.116 µM | > 33.3 µM | < 0.0113 µM | > 33.3 µM | 0.0124 µM | > 33.3 µM | 0.0376 µM | > 33.3 µM | < 0.0141 µM | 0.173 µM | 0.0133 µM | > 28.7 µM
CCN1CCN(c2nc(C)cc(N(CCNc3ccnc4cc(Cl)ccc34)Cc3ccc4c(c3)OCO4)n2)CC1 | 1.7 µM | 3.18 µM | 1.73 µM | 3.87 µM | 1.9 µM | 5.71 µM | 1.36 µM | 2.72 µM | 1.31 µM | 3.76 µM | 3.58 µM | 13.6 µM | 3.22 µM | 13.4 µM | 3.14 µM | 13.9 µM | 1.66 µM | 3.16 µM | 2.1 µM | 6.2 µM
Cc1cc(/C=C/c2ccc3cc(N(C)C)ccc3[n+]2C)c(C)n1-c1ccccc1 | 0.336 µM | 2.47 µM | 0.0635 µM | 1.15 µM | 0.286 µM | 2.23 µM | 0.748 µM | 4.3 µM | 0.0698 µM | 0.696 µM | 0.688 µM | 12.4 µM | 0.13 µM | 0.765 µM | 0.102 µM | 3.9 µM | 0.301 µM | 2.34 µM | 0.193 µM | 2.52 µM
COc1cccc(-c2nc(-c3ccc(NC(=O)C(C)C)cc3)[nH]c2-c2ccnc(Br)c2)c1 | 1.78 µM | 6.56 µM | 2.56 µM | 11.5 µM | 1.84 µM | 6.62 µM | 3.2 µM | > 100 µM | 0.511 µM | 2.85 µM | 4.69 µM | > 100 µM | 3.02 µM | > 100 µM | 2.43 µM | 8.01 µM | 4.35 µM | > 100 µM | 2.56 µM | > 100 µM
O=C(Nc1ccc(Cl)cc1)c1cccc(NC2=C(Cl)C(=O)N(Cc3ccccc3)C2=O)c1 | 4.18 µM | 19.1 µM | 11.4 µM | 78.5 µM | 19.9 µM | 47.1 µM | 13 µM | 30.4 µM | 4.67 µM | 18.6 µM | 13.4 µM | 36.6 µM | 9.12 µM | 21.2 µM | 27.3 µM | > 100 µM | 14.3 µM | 30.7 µM | 12.1 µM | 24.5 µM
Cn1cnc([N+](=O)[O-])c1S(=O)(=O)Oc1cccc2ccccc12 | 2.23 µM | 5.59 µM | 1.91 µM | 4.29 µM | 11.8 µM | 27.2 µM | 1.4 µM | 4.33 µM | 2.68 µM | 6.69 µM | 7.55 µM | 27.8 µM | 8.43 µM | 44.4 µM | 13.9 µM | 34.8 µM | 1.59 µM | 2.98 µM | 3.37 µM | 22.7 µM
CN(C)CCSC1=Nc2ccc(Cl)cc2C(c2ccccc2Cl)=NC1 | 17.3 µM and > 100 µM | 31.6 µM and > 100 µM | 19.2 µM and 78.3 µM | 47.3 µM and > 100 µM | 18.7 µM and > 100 µM | 34.2 µM and > 100 µM | 9.23 µM and 53.4 µM | 21.8 µM and > 100 µM | 16.2 µM and 49.4 µM | 40.6 µM and > 100 µM | 18.6 µM and > 100 µM | 34.4 µM and > 100 µM | 15.4 µM and 57.7 µM | 33.4 µM and > 100 µM | 14.8 µM and 43.4 µM | 29.9 µM and > 100 µM | 17.5 µM and 63.4 µM | 33.1 µM and > 100 µM | – | > 100 µM and 94.3 µM
CCN(CC)/C(SCc1ccccc1)=C(\C(Cl)=C(Cl)Cl)[N+](=O)[O-] | – | 39.4 µM | – | 86.7 µM | – | 26.9 µM | – | 38.9 µM | – | 65.6 µM | – | 41.2 µM | – | 47.1 µM | – | 56.4 µM | – | 33.3 µM | – | 44.5 µM
NC1(C(=O)OCc2ccccc2)CCCC1 | – | 31.7 µM | – | > 100 µM | – | > 100 µM | – | 43.3 µM | – | 68.2 µM | – | 85.7 µM | – | > 100 µM | – | 59.3 µM | – | > 100 µM | – | 83 µM
O=C(CCc1nnc2sc(-c3ccc(Cl)cc3Cl)nn12)c1nc2ncccc2[nH]1 | 1.96 µM | 3.98 µM | 1.47 µM | 5.03 µM | 1.11 µM | 2.41 µM | 1.13 µM | 2.33 µM | 1.8 µM | 7.59 µM | 2.33 µM | 5.29 µM | 1.63 µM | 3.63 µM | 2.71 µM | 7.98 µM | 2.53 µM | 5.16 µM | 1.15 µM | 60.8 µM
OC(c1nc2ccccc2[nH]1)C(O)C(O)C(O)c1nc2ccccc2[nH]1 (centres undefined) | – | > 100 µM | – | > 100 µM | – | > 100 µM | – | > 100 µM | – | > 100 µM | – | > 100 µM | – | > 100 µM | – | > 100 µM | – | > 100 µM | – | > 100 µM
O=C(CSc1ccc(Cl)cc1)Nc1ccc(-c2nc3ccccc3s2)c(Cl)c1 | 14.5 µM | 32.7 µM | 2.54 µM | 8.63 µM | 1.98 µM | 6.34 µM | 2.29 µM | 22.9 µM | 2.66 µM | > 100 µM | 11.6 µM | 55.4 µM | 2.42 µM | 8.23 µM | 4.1 µM | 40.3 µM | 5.3 µM | 40 µM | 4.37 µM | > 100 µM
COc1c(Cl)c(=O)oc2ccc(Cl)cc12 | – | > 100 µM | – | > 100 µM | – | > 100 µM | – | > 100 µM | – | > 100 µM | – | > 100 µM | – | > 100 µM | – | > 100 µM | – | > 100 µM | – | > 100 µM
C[C@@H]1CCC2[C@@H](C)[C@@H](OCC(CO[C@H]3OC4O[C@@]5(C)CC[C@H]6[C@H](C)CCC([C@H]3C)[C@@]46OO5)OC(=O)CCC(=O)O)OC3O[C@@]4(C)CC[C@@H]1[C@]32OO4 (some centres undefined) | 2.26 µM | 28.8 µM | < 0.01 µM | > 100 µM | 13.8 µM | 31.3 µM | 1.57 µM | > 46 µM | < 0.01 µM | 16.5 µM | < 0.01 µM | 14.7 µM | < 0.01 µM | 14.7 µM | 3.03 µM | 41 µM | < 0.046 µM | 29.5 µM | 0.537 µM | > 48.7 µM
COC(=O)C1=C(C)NC(C)=C(C(=O)OCCCN2CCC(c3ccccc3)(c3ccccc3)CC2)C1c1cccc([N+](=O)[O-])c1 (centres undefined) | – | 3.27 µM | – | 30.2 µM | – | 8.69 µM | – | 3.89 µM | – | 5.82 µM | – | 7.3 µM | – | 3.05 µM | – | 6.42 µM | – | 7.34 µM | – | 10 µM
